# Source: ChEMBL document CHEMBL2057131, “Novel steroid inhibitors of glucose 6-phosphate dehydrogenase” (J Med Chem, 2012)
# Biological target: Glucose-6-phosphate 1-dehydrogenase (Homo sapiens, UniProt P11413)
# Experiment: Inhibition of human recombinant N-terminal His tagged G6PD expressed in Escherichia coli JM109 (DE3) cells assessed as production of NADPH after 30 mins by Amplite fluorimetric assay
# Glucose-6-phosphate 1-dehydrogenase, sequence (P11413 whole entry): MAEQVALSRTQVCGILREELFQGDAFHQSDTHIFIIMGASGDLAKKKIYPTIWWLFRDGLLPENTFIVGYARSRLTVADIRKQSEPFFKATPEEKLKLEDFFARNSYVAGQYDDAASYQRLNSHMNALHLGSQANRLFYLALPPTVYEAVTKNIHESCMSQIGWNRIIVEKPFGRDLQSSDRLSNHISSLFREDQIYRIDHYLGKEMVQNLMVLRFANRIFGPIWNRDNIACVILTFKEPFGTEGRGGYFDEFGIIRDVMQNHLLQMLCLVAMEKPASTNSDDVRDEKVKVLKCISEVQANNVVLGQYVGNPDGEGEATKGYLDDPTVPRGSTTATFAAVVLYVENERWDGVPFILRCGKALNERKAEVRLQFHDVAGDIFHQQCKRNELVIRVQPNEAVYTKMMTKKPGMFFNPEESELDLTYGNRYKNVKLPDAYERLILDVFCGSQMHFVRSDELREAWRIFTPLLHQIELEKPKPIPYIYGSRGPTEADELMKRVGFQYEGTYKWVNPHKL
row,Compound,IC50 [µM]
1,C[C@]12CC[C@H](O)CC1=CC[C@@H]1[C@@H]2CC[C@@]2(C)[C@H]1CC[C@@]21CCO1,> 200
2,C[C@]12CC[C@@H](NS(N)(=O)=O)C[C@@H]1CC[C@@H]1[C@@H]2CC[C@]2(C)C(=O)CC[C@@H]12,> 200
3,CC(=O)[C@H]1CC[C@H]2[C@@H]3CC[C@H]4C[C@@H](NS(=O)(=O)N(C)C)CC[C@]4(C)[C@H]3CC[C@]12C,37.8
4,CC(=O)[C@H]1CC[C@H]2[C@@H]3CC[C@H]4C[C@@H](O)CC[C@]4(C)[C@H]3C(=O)C[C@]12C,15.8
5,CC(=O)[C@H]1CC[C@H]2[C@@H]3CC[C@H]4C[C@@H](NS(=O)(=O)c5ccccc5)CC[C@]4(C)[C@H]3CC[C@]12C,20.3
6,C[C@]12CC[C@@H](O)C[C@@H]1CC[C@@H]1[C@@H]2CC[C@]2(C)C(=O)CC[C@@H]12 [ANDROSTERONE],> 200
7,CC(=O)OCC(=O)[C@H]1CC[C@H]2[C@@H]3CC[C@H]4C[C@@H](O)CC[C@]4(C)[C@H]3CC[C@]12C,> 200
8,C[C@]12CC[C@@H](N)C[C@@H]1CC[C@@H]1[C@@H]2CC[C@]2(C)C(=O)CC[C@@H]12,> 200
9,C[C@]12CC[C@H](O)CC1=CC[C@@H]1[C@@H]2CC[C@]2(C)C(=O)[C@H](O)C[C@@H]12,15.8
10,CC(=O)C[C@H]1CC[C@H]2[C@@H]3CC[C@H]4C[C@@H](O)CC[C@]4(C)[C@H]3CC[C@]12C,> 200
11,CC(=O)[C@H]1CC[C@H]2[C@@H]3CC[C@H]4C[C@@H](NC(N)=O)CC[C@]4(C)[C@H]3CC[C@]12C,> 100
12,CCNC(=O)NC1CC[C@@]2(C)[C@@H](CC[C@@H]3[C@@H]2CC[C@]2(C)[C@@H](C(=O)CO)CC[C@@H]32)C1 (stereo partly drawn),34.9
13,C[C@]12CC[C@H](O)C[C@@H]1CC[C@H]1[C@@H]3CC[C@H](C(=O)CO)[C@@]3(C)CC(=O)[C@@H]12,6.3
14,CCNC(=O)N[C@@H]1CC[C@@]2(C)[C@@H](CC[C@@H]3[C@@H]2CC[C@]2(C)C(=O)CC[C@@H]32)C1,> 200
15,C[C@]12CC[C@H](N)C[C@@H]1CC[C@@H]1[C@@H]2CC[C@]2(C)C(=O)CC[C@@H]12,> 200
16,C[C@]12CC[C@@H](NS(C)(=O)=O)C[C@@H]1CC[C@@H]1[C@@H]2CC[C@]2(C)C(=O)CC[C@@H]12,> 200
17,CC(=O)N[C@H]1CC[C@@]2(C)[C@@H](CC[C@@H]3[C@@H]2CC[C@]2(C)C(=O)CC[C@@H]32)C1,128
18,CCS(=O)(=O)N[C@H]1CC[C@@]2(C)[C@@H](CC[C@@H]3[C@@H]2CC[C@]2(C)[C@@H](C(C)=O)CC[C@@H]32)C1,11
19,CNC(=O)N[C@H]1CC[C@@]2(C)[C@@H](CC[C@@H]3[C@@H]2CC[C@]2(C)C(=O)CC[C@@H]32)C1,12.2
20,C[C@]12CCCC[C@@H]1CC[C@@H]1[C@@H]2CC[C@]2(C)C(=O)CC[C@@H]12,> 200
21,C[C@]12CC[C@H](O)C[C@@H]1CC[C@@H]1[C@@H]2CC[C@]2(C)[C@@H](C(=O)CBr)CC[C@@H]12,2.5
22,CC(=O)[C@@]1(O)CC[C@H]2[C@@H]3CC[C@H]4C[C@@H](O)CC[C@]4(C)[C@H]3C(=O)C[C@@]21C,47
23,C[C@]12CC[C@H](NS(=O)(=O)c3ccccc3)C[C@@H]1CC[C@@H]1[C@@H]2CC[C@]2(C)C(=O)CC[C@@H]12,9.9
24,CC(=O)[C@H]1CC[C@H]2[C@@H]3CC[C@H]4C[C@@H](O)CC[C@]4(C)[C@H]3CC[C@]12C [SEPRANOLONE],4.3
25,CC(=O)[C@@]12O[C@@H]1C[C@H]1[C@@H]3CC[C@H]4C[C@@H](O)CC[C@]4(C)[C@H]3CC[C@@]12C,> 200
26,CCS(=O)(=O)N[C@H]1CC[C@@]2(C)[C@@H](CC[C@@H]3[C@@H]2CC[C@]2(C)C(=O)CC[C@@H]32)C1,70.5
27,C[C@]12CC[C@H](NS(C)(=O)=O)C[C@@H]1CC[C@@H]1[C@@H]2CC[C@]2(C)C(=O)CC[C@@H]12,6.6
28,CC(=O)[C@H]1CC[C@H]2[C@@H]3CC[C@H]4C[C@H](O)CC[C@]4(C)[C@H]3CC[C@]12C [BREXANOLONE],66
